Data taken from ChEMBL document CHEMBL2074296, “Kinetic analysis of hepatobiliary transport of organic anions in Eisai hyperbilirubinemic mutant rats” (J Pharmacol Exp Ther, 1993).

What was measured:
[1] = target: T1, ATP-binding cassette sub-family C member 2 (Rattus norvegicus, UniProt Q63120); assay: TP_TRANSPORTER: biliary excretion in EHBR rat; type: functional, organism-based, Bile; settings: in vivo
[2] = target: T1, ATP-binding cassette sub-family C member 2; assay: TP_TRANSPORTER: biliary excretion in SD rat; type: functional, organism-based, Sprague-Dawley, Bile; settings: in vivo

T1 sequence (Q63120 whole entry): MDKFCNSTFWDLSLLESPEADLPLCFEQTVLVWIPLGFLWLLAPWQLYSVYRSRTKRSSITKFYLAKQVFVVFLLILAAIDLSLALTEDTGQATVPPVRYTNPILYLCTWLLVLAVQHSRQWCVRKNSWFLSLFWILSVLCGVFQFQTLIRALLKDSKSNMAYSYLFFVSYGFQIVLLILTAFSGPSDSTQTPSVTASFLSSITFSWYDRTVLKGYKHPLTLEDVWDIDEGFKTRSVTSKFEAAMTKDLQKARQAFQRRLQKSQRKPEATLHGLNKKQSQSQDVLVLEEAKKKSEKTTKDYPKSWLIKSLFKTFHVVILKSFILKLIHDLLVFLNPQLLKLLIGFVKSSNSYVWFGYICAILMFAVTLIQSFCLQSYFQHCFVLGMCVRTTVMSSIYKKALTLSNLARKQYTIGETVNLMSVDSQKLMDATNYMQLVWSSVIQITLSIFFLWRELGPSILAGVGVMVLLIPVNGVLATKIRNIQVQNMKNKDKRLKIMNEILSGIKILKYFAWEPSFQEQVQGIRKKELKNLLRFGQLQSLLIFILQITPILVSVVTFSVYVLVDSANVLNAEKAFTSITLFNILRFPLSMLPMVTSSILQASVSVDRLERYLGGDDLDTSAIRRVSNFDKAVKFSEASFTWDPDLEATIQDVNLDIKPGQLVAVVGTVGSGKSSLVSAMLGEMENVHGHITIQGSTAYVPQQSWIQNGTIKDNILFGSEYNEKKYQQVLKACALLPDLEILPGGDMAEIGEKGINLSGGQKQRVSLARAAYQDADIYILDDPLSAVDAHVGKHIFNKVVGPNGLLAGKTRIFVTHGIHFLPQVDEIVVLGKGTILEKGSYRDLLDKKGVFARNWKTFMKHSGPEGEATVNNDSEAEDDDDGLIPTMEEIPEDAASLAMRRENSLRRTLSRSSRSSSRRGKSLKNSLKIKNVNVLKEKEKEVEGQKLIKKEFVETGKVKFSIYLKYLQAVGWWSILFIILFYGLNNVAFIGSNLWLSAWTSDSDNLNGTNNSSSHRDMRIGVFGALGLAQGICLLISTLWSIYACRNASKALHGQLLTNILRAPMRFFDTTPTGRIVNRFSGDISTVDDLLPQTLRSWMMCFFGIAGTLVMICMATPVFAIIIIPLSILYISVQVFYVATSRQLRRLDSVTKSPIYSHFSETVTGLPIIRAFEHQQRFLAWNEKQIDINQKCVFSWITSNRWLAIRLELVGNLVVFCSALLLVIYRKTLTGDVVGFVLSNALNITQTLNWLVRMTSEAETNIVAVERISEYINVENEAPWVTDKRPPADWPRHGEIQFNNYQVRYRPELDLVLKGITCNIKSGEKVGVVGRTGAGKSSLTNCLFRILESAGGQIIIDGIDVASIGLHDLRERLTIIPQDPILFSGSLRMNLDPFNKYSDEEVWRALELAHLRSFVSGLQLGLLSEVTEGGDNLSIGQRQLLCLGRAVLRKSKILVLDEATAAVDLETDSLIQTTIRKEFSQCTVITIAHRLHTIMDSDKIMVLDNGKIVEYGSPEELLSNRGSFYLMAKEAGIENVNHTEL

Structure (SMILES)	Activity [1]	Activity [2]
CO/N=C(\C(=O)N[C@@H]1C(=O)N2C(C(=O)O)=C(CSc3nc(C)c(CC(=O)O)s3)CS[C@H]12)c1csc(N)n1 [CEFODIZIME]	substrate [+]	substrate [+]
O=C1OC(c2ccc(OS(=O)(=O)O)cc2)(c2ccc(OS(=O)(=O)O)cc2)c2c(Br)ccc(Br)c21 [DIBROMOSULFOPHTHALEIN]	substrate [+]	substrate [+]
CC1(C)C(/C=C/C=C/C=C/C=C2/N(CCCCS(=O)(=O)[O-])c3ccc4ccccc4c3C2(C)C)=[N+](CCCCS(=O)(=O)[O-])c2ccc3ccccc3c21.[Na+] [INDOCYANINE GREEN]	substrate [+]	substrate [+]
